Laboratory results reported in patent publication US6825209B2, “Compounds having unique CB1 receptor binding selectivity and methods for their production and use” (Research Triangle Institute, priority 2002, dated 2004).
Read-outs that look alike come from different tables or passages of the source.

Tests used:
Type in all cases: binding
CB1 receptor = target: T1, CB1 receptor (Rattus norvegicus, UniProt P20272); test: Radioligand displacement in whole rat brain (CB1) membrane preparations
T1 construct: Whole rat brains or dissected regions from live CD rats; tissue Charles River or Pel-Freez Biologicals; host or cells: whole rat brain (CD rats), P2 membrane
T1 sequence (P20272 whole entry): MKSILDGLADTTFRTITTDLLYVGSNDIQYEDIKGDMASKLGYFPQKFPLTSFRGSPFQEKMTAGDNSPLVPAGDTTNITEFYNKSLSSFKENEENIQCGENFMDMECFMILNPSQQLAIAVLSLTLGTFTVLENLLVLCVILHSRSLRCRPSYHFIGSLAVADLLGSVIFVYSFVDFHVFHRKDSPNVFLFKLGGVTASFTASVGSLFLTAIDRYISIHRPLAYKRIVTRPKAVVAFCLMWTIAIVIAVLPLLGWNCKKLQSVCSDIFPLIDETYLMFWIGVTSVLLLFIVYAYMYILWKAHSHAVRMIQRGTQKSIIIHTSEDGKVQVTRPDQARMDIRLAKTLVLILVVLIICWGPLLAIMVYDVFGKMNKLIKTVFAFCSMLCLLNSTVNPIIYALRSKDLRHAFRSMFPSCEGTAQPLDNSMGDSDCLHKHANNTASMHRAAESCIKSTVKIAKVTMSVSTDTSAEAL
Text: CB1 receptor affinity in rat brain.
Methods—membrane preparation from brain. The methods for tissue preparation are essentially those described by Devane et al. (1988) as modified by Compton et al. (1993) and later by Thomas et al. (1998). Whole rat brains or dissected regions from live CD rats from Charles River or Pel-Freez Biologicals (Rogers, Ark.), or human brain sections obtained from the National Disease Research Institute, were allowed to thaw to room temperature on ice. Both whole brain and dissected brain regions were used because different brain regions may express different cannabinoid receptor subtypes (Skaper et al., 1996; Thomas et al., 1998). The tissue was homogenized with a Kontes Potter-Elvehjem glass-Teflon grinding system (Fisher Scientific, Springfield, N.J.) in buffer 1 (320 mM sucrose, 2 mM EDTA, 5 mM MgCl2. The homogenate was centrifuged at 1600 g for 10 min. The supernatant was saved and combined with the two subsequent supernatants obtained from washing and 1600 g centrifugation of the P1 pellet. The combined supernatant fractions were then centrifuged at 39,000 g for 15 min. The P2 pellet was resuspended in 50 mL of buffer 2 (50 mM Tris.HCl, 2 mM EDTA, 5 mM MgCl2, pH 7.0), incubated at 37° C. for 10 min, then centrifuged at 23,000 g for 10 min. The P2 membrane was resuspended in 50 mL of buffer 2, incubated at 30° C. for 40 min, then centrifuged at 11,000 g for 15 min. The final wash-treated P2 pellet was resuspended in assay buffer 3 (50 mM Tris.HCl, 1 mM EDTA, 3 MM MgCl2, pH 7.4). Protein concentrations were determined by the method of Bradford (1976) using Coomassie brilliant blue dye (Bio-Rad, Richmond, Calif.) and BSA standards (bovine serum albumin, fatty acid free, Sigma Chemical Co., St. Louis, Mo.) prepared in assay buffer 3. The membrane preparation was divided into aliquots and stored at −80° C. For use in the binding assay, an aliquot of frozen membranes was thawed on ice and diluted to a concentration of ca. 0.2 mg/mL in assay buffer.
Methods—binding assay in brain membrane preparation. The methods for ligand binding are essentially those described by Devane et al. (1988) with the exception that we used a filtration assay. […] All cannabinoid analogs were prepared by suspension in buffer A from a 1-5 mg/mL ethanolic stock. Following incubation at 30° C. for 1 h, binding was terminated by vacuum filtration through pretreated filters in a 96-well sampling manifold (Millipore, Bedford, Mass.). Reaction vessels were washed at least 3 times with 1 mL of ice cold buffer B (50 mM Tris.HCl, 1 mg/mL BSA). The filter plates were air-dried and sealed on the bottom. Liquid scintillant was added to the wells and the top sealed. After incubating the plates in cocktail for at least 2 h, the radioactivity present was determined by liquid scintillation spectrometry. Assays were done in duplicate, and results represent the combined data of three to six independent experiments. All assays were performed in polypropylene test tubes. The GF/C glassfiber filter plates (Packard, Meriden, Conn.) were pretreated in buffer B for at least 1 h.
(§1) Data analysis. Saturation and displacement data were analyzed by unweighted nonlinear regression of receptor binding data. For displacement studies, curve-fitting and IC50 calculation were done with GraphPad Prism (GraphPad Software, Inc., San Diego, Calif.), which fits the data to one and two-site models and compares the two fits statistically. A similar approach was used for the analysis of isotherm data for calculation of Kd's. A two-site fit was accepted only if it was statistically significant (p<0.05) and the following results were not observed:
(§2) IC50 values were then converted to Ki values by reported methods (Cheng and Prusoff, 1973). The statistical evaluation of curve-fitting data allowed for a non-arbitrary conclusion based on the displacement data.

human CB2 receptor = target: T2, human CB2 receptor (Homo sapiens, UniProt P34972); test: Displacement of 3H-CP55,940 in human CB2 receptor-transfected cells (CHO-K1); conditions: radioligand 3H-CP55940, Tables 6 and 7
T2 construct: expressed in transfected cells; host or cells: CHO-K1
T2 sequence (P34972 whole entry): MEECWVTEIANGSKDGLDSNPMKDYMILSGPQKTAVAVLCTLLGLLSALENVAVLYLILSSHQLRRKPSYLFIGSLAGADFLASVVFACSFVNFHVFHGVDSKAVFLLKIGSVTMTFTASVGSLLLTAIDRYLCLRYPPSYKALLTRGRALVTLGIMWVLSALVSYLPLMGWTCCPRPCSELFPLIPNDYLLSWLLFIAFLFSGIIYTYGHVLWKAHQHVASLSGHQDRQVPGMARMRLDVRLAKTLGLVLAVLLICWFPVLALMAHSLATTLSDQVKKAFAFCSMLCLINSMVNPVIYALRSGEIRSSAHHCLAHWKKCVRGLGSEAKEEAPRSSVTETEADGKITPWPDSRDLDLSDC
Description: Human CB2 receptor affinity. The relative selectivity of the analogs for CB1 versus CB2 receptors varied modestly regardless of the structural modifications examined to date.
(§3) Methods—binding assay in transfected cell lines. The methods used for performing binding assays in transfected cells expressing human CB1 or CB2 receptors are those used above. The CB1 receptor involved a HEK-293 expression system whereas the CB2 receptor was expressed in CHO-K1 cells. […] The incubations and separations were then performed as described above for rat brain membrane preparations.
as §1, §2

human CB1 receptor = target: T3, human CB1 receptor (Homo sapiens, UniProt P21554); test: Radioligand displacement in human CB1 receptor-transfected cells (HEK-293)
T3 construct: expressed in transfected cells; host or cells: HEK-293
T3 sequence (P21554 whole entry): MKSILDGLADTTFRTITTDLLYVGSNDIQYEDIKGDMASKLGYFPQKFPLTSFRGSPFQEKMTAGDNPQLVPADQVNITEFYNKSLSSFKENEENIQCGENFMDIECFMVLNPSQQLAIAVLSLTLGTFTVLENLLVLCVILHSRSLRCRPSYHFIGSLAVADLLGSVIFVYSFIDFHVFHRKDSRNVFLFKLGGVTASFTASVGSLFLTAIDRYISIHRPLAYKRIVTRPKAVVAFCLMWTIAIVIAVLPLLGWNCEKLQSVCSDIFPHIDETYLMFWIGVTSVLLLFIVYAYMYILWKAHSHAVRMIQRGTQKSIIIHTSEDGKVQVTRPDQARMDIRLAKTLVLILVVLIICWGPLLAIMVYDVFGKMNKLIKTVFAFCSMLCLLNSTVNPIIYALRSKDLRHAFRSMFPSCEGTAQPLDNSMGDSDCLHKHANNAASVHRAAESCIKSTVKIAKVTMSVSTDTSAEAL
Description: Human CB1 receptor affinity. The alkyl amide analogs of the present invention were examined using transfected cell lines expressing the human CB1 receptor (Table 3).
as §3, §1, §2

[1] = whole rat brain membranes, radioligand 3H-CP55940, Tables 1 and 2
[2] = whole rat brain membranes, radioligand 3H-SR141716A, Tables 1 and 2
[3] = Ki, displacement of 3H-CP55940, whole rat brain, 3H-CP55940, Table 4, parallel synthesis analogs, n = 1, concentration assumes 100% yield
[4] = Ki, displacement of 3H-SR141716A, whole rat brain, 3H-SR141716A, Table 4, parallel synthesis analogs, n = 1, concentration assumes 100% yield
[5] = Ki, displacement of 3H-WIN55212-2, whole rat brain, 3H-WIN55212-2, Table 4, parallel synthesis analogs, n = 1, concentration assumes 100% yield
[6] = whole rat brain, 3H-CP55940, Table 4, parallel synthesis analogs, n = 1
[7] = whole rat brain, 3H-SR141716A, Table 4, parallel synthesis analogs, n = 1
[8] = whole rat brain, 3H-WIN55212-2, Table 4, parallel synthesis analogs, n = 1
[9] = displacement of 3H-CP55940, human CB1 transfected cells, 3H-CP55940, Table 5, parallel synthesis analogs, concentration assumes 100% yield
[10] = displacement of 3H-SR141716A, human CB1 transfected cells, 3H-SR141716A, Table 5, parallel synthesis analogs, concentration assumes 100% yield
[11] = displacement of 3H-WIN55212-2, human CB1 transfected cells, 3H-WIN55212-2, Table 5, parallel synthesis analogs, concentration assumes 100% yield
[12] = human CB1 transfected cells, 3H-CP55940, Table 5, parallel synthesis analogs
[13] = human CB1 transfected cells, 3H-SR141716A, Table 5, parallel synthesis analogs
[14] = human CB1 transfected cells, 3H-WIN55212-2, Table 5, parallel synthesis analogs

Compound | Max. Disp. %, 3H-CP55940 (CB1 receptor; [1]) | Max. Disp. %, 3H-SR141716A (CB1 receptor; [2]) | Max. Disp. %, 3H-CP55940 (human CB2 receptor; human CB2 transfected cells) | Ki (CB1 receptor; [3]) | Ki (CB1 receptor; [4]) | Ki (CB1 receptor; [5]) | Max. Disp. %, 3H-CP55940 (CB1 receptor; [6]) | Max. Disp. %, 3H-SR141716A (CB1 receptor; [7]) | Max. Disp. %, 3H-WIN55212-2 (CB1 receptor; [8]) | Ki (human CB1 receptor; [9]) | Ki (human CB1 receptor; [10]) | Ki (human CB1 receptor; [11]) | Max. Disp. %, 3H-CP55940 (human CB1 receptor; [12]) | Max. Disp. %, 3H-SR141716A (human CB1 receptor; [13]) | Max. Disp. %, 3H-WIN55212-2 (human CB1 receptor; [14]) | other results
Cc1c(C(=O)NO)nn(-c2ccc(Cl)cc2Cl)c1-c1ccc(Cl)cc1 [MF9725-131-25] | 58.4% | 65.7% | 27.0% |  |  |  |  |  |  |  |  |  |  |  |  | Ki (CB1 receptor; read-out: Ki, displacement of 3H-CP55940, whole rat brain membranes, radioligand 3H-CP55940, Tables 1 and 2): 1690 nM; Ki (CB1 receptor; read-out: Ki, displacement of 3H-SR141716A, whole rat brain membranes, radioligand 3H-SR141716A, Tables 1 and 2): 1560 nM; Ki (human CB2 receptor; read-out: Ki, displacement of 3H-CP55940, human CB2 transfected cells): 7820 nM
CCCCCCC(C)(C)NC(=O)c1nn(-c2ccc(Cl)cc2Cl)c(-c2ccc(Cl)cc2)c1C [MF10110-119-11] | 83.2% | 76.4% | 52.8% |  |  |  |  |  |  |  |  |  |  |  |  | Ki (CB1 receptor; Ki, displacement of 3H-CP55940, whole rat brain membranes, radioligand 3H-CP55940, Tables 1 and 2): 181 nM; Ki (CB1 receptor; Ki, displacement of 3H-SR141716A, whole rat brain membranes, radioligand 3H-SR141716A, Tables 1 and 2): 21.6 nM; Ki (CB1 receptor; Ki, displacement of 3H-WIN55212-2, whole rat brain membranes, radioligand 3H-WIN55212-2, Tables 1 and 2): 10.4 nM; Max. Disp. %, 3H-WIN55212-2 (CB1 receptor; whole rat brain membranes, radioligand 3H-WIN55212-2, Tables 1 and 2): 72.2%; Max. Disp. %, 3H-SR141716A (human CB1 receptor): 99.9%; Max. Disp. %, 3H-WIN55212-2 (human CB1 receptor): 86.5%; Ki (human CB1 receptor; displacement of 3H-CP55940): 32.7 nM; Ki (human CB1 receptor; displacement of 3H-SR141716A): 5 nM; Ki (human CB1 receptor; displacement of 3H-WIN55212-2): 14.4 nM; Ki (human CB2 receptor; Ki, displacement of 3H-CP55940, human CB2 transfected cells): 16600 nM
COc1ccc(NC(=O)c2nn(-c3ccc(Cl)cc3Cl)c(-c3ccc(Cl)cc3)c2C)cc1 [AN-2] |  |  |  | 91 nM | 11.8 nM | 30.4 nM | 96.4% | 95.4% | 85.8% | 220 nM | 101 nM | 128 nM | 62.6% | 87.3% | 68.1% | 
CCCCCCCCCCCCCNC(=O)c1nn(-c2ccc(Cl)cc2Cl)c(-c2ccc(Cl)cc2)c1C [BT-6] |  |  |  | 492 nM | 172 nM | 495 nM | 79.3% | 97.6% | 80.5% | 201 nM | 4.2 nM | 173 nM | 75.9% | 91.3% | 94.9% | 
Cc1c(C(=O)O)nn(-c2ccc(Cl)cc2Cl)c1-c1ccc(Cl)cc1 [SH9631-55] | 8.2% | 0% | 0.0% |  |  |  |  |  |  |  |  |  |  |  |  | Ki, displacement of 3H-SR141716A (CB1 receptor; [2]): Nr; Ki, displacement of 3H-CP55940 (human CB2 receptor; human CB2 transfected cells): nr
Cc1c(C(=O)NCCC(c2ccccc2)c2ccccc2)nn(-c2ccc(Cl)cc2Cl)c1-c1ccc(Cl)cc1 [AKS-10262-9] |  |  |  | 19.9 nM | 5.52 nM | 10.3 nM | 90.1% | 96.0% | 81.1% | 25.2 nM | 3.28 nM | 16.9 nM | 88.1% | 96.7% | 77.3% | 
CCCCCC(C)NC(=O)c1nn(-c2ccc(Cl)cc2Cl)c(-c2ccc(Cl)cc2)c1C (stereo not drawn) [AKS-10262-1] |  |  |  | 10.7 nM | 2.6 nM | 1.84 nM | 98.2% | 96.5% | 89.0% |  |  |  |  |  |  | Max. Disp. %, 3H-CP55940 (human CB1 receptor): 80.7%; Max. Disp. %, 3H-SR141716A (human CB1 receptor): 95.6%; Max. Disp. %, 3H-WIN55212-2 (human CB1 receptor): 100%; Ki (human CB1 receptor; displacement of 3H-CP55940): 11.9 nM; Ki (human CB1 receptor; displacement of 3H-SR141716A): 2.02 nM; Ki (human CB1 receptor; displacement of 3H-WIN55212-2): 54.6 nM
COCC(C)NC(=O)c1nn(-c2ccc(Cl)cc2Cl)c(-c2ccc(Cl)cc2)c1C (stereo not drawn) [AM-17] |  |  |  | 64.4 nM | 22.8 nM | 22.6 nM | 96.2% | 94.1% | 84.8% | 39.8 nM | 17.6 nM | 30.9 nM | 86.3% | 98.7% | 96.8% | 
Cc1c(C(=O)NCCc2ccc(O)cc2)nn(-c2ccc(Cl)cc2Cl)c1-c1ccc(Cl)cc1 [AM-52] |  |  |  | 71.4 nM | 29.8 nM | 326 nM | 84.7% | 100% | 94.9% | 106 nM | 13.6 nM | 162 nM | 96.1% | 99.5% | 100% | 
Cc1c(C(=O)N2CCC(O)(c3ccccc3)CC2)nn(-c2ccc(Cl)cc2Cl)c1-c1ccc(Cl)cc1 [AM-28] |  |  |  | 113 nM | 41.2 nM | 69.5 nM | 97.2% | 97.2% | 94.4% | 52.1 nM | 28.2 nM | 56.9 nM | 79.6% | 99.2% | 100% | 
